According to US9023876B2, “Compounds and methods for regulating integrins” (Adhaere Pharmaceuticals, Inc., priority 2010, dated 2015):

How the values were obtained:
[1] = target: T1, CD11b A-domain (αA-domain) (Homo sapiens, UniProt P11215); assay: αA-domain ligand-binding assay (GST-αA-domain to immobilized Fg); settings: to level of activating mutant I316G
T1 construct: protein fragments spanning residues Gly^111-Gly^321 (321WT); made in house; host or cells: Escherichia coli
Excerpt: Purification of recombinant CD11b A-Domain (.Alpha.A-Domain). Recombinant human aA-domains were constructed and purified according to published protocols. […] The aA-domain in its active conformation was generated by replacing Ile^316 with Gly (1316G [55]) using forward primer 5′-[…]-3′ (SEQ ID NO: 3) and reverse primer 5′-[…]-3′ (SEQ ID NO: 4). The insert was digested with BamHI and SmaI and ligated into pGEX-2T vector also digested with BamHI and SmaI. All constructs were confirmed by direct DNA sequencing. All recombinant proteins were expressed as glutathione S-transferase (GST) fusion proteins in Escherichia coli and purified by affinity chromatography (Glutathione-beads, Sigma) following manufacturer's instructions. Purified protein preparations were dialyzed against 20 mm Tris-HCl, pH 7.5, 150 mm NaCl (Tris-buffered saline) and subsequently concentrated using Amicon-10 columns (Millipore) and stored at −80° C. […]
Maxisorp 96-well plates were coated with Fg (1 μg/well) in 10 mM PBS, pH 7.4 overnight and blocked with 1% bovine serum albumin in PBS. […] Subsequently, the amount of bound protein was determined by incubating with anti-GST antibody conjugated to horseradish peroxidase (GE, Piscataway, N.J.) (1:2000 dilution) for 1 hr. […] Absorbance was read using Spectromax M5 spectrophotometer (Molecular Devices, Sunnyvale, Calif.). […]

K562 CD11b/CD18 cells = assay: Cell viability assay (MTS); type: cell-based; settings: 24 h; concentrations as high as 50 μM
Procedure: Cell viability assay was performed as described. Briefly, K562 CD11b/CD18 cells (10,000/well) were incubated in 96 well plates (Corning, Corning, N.Y.) with increasing amounts of indicated compound for 24 h. The number of viable cells after 24 h was determined by using MTS reagent according to manufacturers protocol (Promega, Madison, Wis.) and using Spectramax M5 spectrophotometer (Molecular Devices) for reading of the assay plates. Data presented is representative of at least two independent experiments.

mice = assay: Anti-glomerular basement membrane (anti-GBM) nephritis model; type: in vivo, mouse
Excerpt: To determine whether CD11b/CD18 agonists have any therapeutic advantages over antagonists, we performed a head-to-head comparison between a well-characterized CD11b/CD18 antagonist (anti-CD11b antibody M1/70, [82]) and LA1 using an established mouse model of kidney disease, the anti-glomerular basement membrane (anti-GBM) nephritis. This model is characterized by neutrophil infiltration that mediates urinary protein loss, including albumin. In line with an important role for CD11b in this disease, CD11b^−/− mice and anti-CD11b mAb treated rats show decreased leukocyte infiltration and a protection from proteinuria. Here, induction of disease in mice led to peak influx of neutrophils and maximal proteinuria at day 3.

[2] = test system: Tg(mpx::eGFP) zebrafish larvae; assay: Zebrafish tailfin injury assay; type: in vivo; settings: 4 h post injury; vehicle 34.6±4.5
Procedure: Transgenic Tg(mpx::eGFP) were maintained according to standard protocols. Tailfin injury in three days post fertilization (dpf) larvae was performed as described. Larvae were anesthetized by immersion in E3 with […] tricane, and tail was completely transected with a sterile microdissection scalpel in accordance with the approved protocols and were recovered for the indicated time points. Zebrafish larvae (3 dpf) were treated with compounds as described (Ref). Briefly, small molecule compounds were administered by immersing the larvae in a solution of the compounds in E3. The final concentration of DMSO was kept at <1%. For the assessment of the inflammatory response, injured larvae were analyzed at 4 h post-injury. For the post-wash assay, uninjured larvae incubated with the compounds in E3 for 4-8 h, washed into E3 and injured. Larvae were analyzed using a Leica DMI6000B microscope and an Hamamatsu Orca-3CCD camera using Volocity. Excitation was performed using the laser at 488 nm and the images were analyzed using Volocity. The number of fluorescent neutrophils at the site of inflammation were counted by eye in a blinded fashion. […]

T1 sequence (P11215 127-337): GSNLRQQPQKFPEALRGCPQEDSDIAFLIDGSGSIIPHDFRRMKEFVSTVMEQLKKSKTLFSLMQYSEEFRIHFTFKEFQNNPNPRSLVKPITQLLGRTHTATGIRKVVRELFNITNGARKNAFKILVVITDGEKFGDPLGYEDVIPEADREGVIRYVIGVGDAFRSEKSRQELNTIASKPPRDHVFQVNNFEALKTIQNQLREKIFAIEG

O=C(O)c1ccc(-c2ccc(/C=C3\SC(=S)N(Cc4ccccc4)C3=O)o2)cc1 [LA1]
binding of the WT αA to the immobilized ligand [1]: increased binding
in vitro cytotoxicity to K562 cells (K562 CD11b/CD18 cells): no cytotoxicity
number of infiltrated neutrophils (neutrophil influx) (mice): significant and maximal decrease
proteinuria (mice): significant and maximal decrease
neutrophil accumulation in the zebrafish tailfin (number of neutrophils) [2]: 15.6±1.7
